Assays:
[1] = xn = mol fraction of the nth substance listed; settings: 101 kPa, Liquid
[2] = 101 kPa, Liquid

CCCCn1cc[n+](C)c1.F[P-](F)(F)(F)(F)F [1-butyl-3-methylimidazolium hexafluorophosphate] + c1ccccc1
mass density [kg/m3], [1]
Settings	293.15 K	298.15 K	303.15 K	308.15 K	313.15 K	323.15 K	333.15 K	343.15 K
x1 = 0.34	1166.34	1161.8	1157.16	1152.56	1148.35	1139.5	1129.94	1120.87
x1 = 0.3995	1197.59	1193.15	1188.62	1184.16	1180.04	1171.45	1162.13	1153.45
x1 = 0.4999	1239.2	1234.86	1230.38	1226.01	1222.02	1213.65	1204.95	1196.96
x1 = 0.5999	1274.25	1269.99	1265.61	1261.3	1257.39	1249.14	1240.67	1233.13
x1 = 0.7	1304.29	1299.95	1295.6	1291.34	1287.35	1279.03	1270.76	1263.66
x1 = 0.8003	1329.79	1325.97	1321.58	1317.28	1313.09	1304.76	1296.68	1289.79
x1 = 0.9001	1351.51	1347.29	1342.85	1338.55	1334.45	1326.2	1317.85	1310.77
x1 = 1	1371.57	1367.22	1362.86	1358.56	1354.3	1345.98	1337.7	1330.76

CCCCn1cc[n+](C)c1.F[B-](F)(F)F [1-butyl-3-methylimidazolium tetrafluoroborate] + CCCO
mass density [kg/m3], [1]
Settings	293.15 K	298.15 K	303.15 K	308.15 K	313.15 K	323.15 K	333.15 K	343.15 K
x1 = 0.3999	1054.66	1051.03	1047.17	1043.37	1039.88	1032.41	1024.28	1016.75
x1 = 0.4498	1072.68	1068.9	1065.03	1061.22	1057.72	1050.32	1042.29	1034.83
x1 = 0.5001	1089.08	1085.28	1081.39	1077.57	1074.09	1066.73	1058.77	1051.38
x1 = 0.6001	1117.7	1113.99	1110.15	1106.39	1103.01	1095.73	1087.82	1080.57
x1 = 0.6978	1141.41	1137.71	1133.91	1130.15	1126.78	1119.64	1111.83	1104.68
x1 = 0.8002	1163	1159.35	1155.61	1151.92	1148.61	1141.54	1133.81	1126.78
x1 = 0.9003	1180.65	1176.99	1173.25	1169.56	1166.26	1159.25	1151.58	1144.59
x1 = 1	1195.71	1192.07	1188.37	1184.72	1181.43	1174.49	1166.89	1159.97

CC#N [acetonitrile]
[2]
Settings	mass density [kg/m3]
293.15 K	782.3
298.15 K	776.93
303.15 K	771.44
308.15 K	765.97
313.15 K	760.68
323.15 K	749.73
333.15 K	738.19
343.15 K	726.94

CCCCn1cc[n+](C)c1.F[B-](F)(F)F [1-butyl-3-methylimidazolium tetrafluoroborate] + c1ccccc1
mass density [kg/m3], [1]
Settings	293.15 K	298.15 K	303.15 K	308.15 K	313.15 K	323.15 K	333.15 K	343.15 K
x1 = 0.4871	1105.2	1101.28	1097.21	1093.23	1089.58	1081.9	1073.73	1065.72
x1 = 0.5499	1120.99	1117.14	1113.2	1109.3	1105.72	1098.23	1090.17	1082.51
x1 = 0.5999	1132.31	1128.5	1124.57	1120.71	1117.22	1109.81	1101.75	1094.35
x1 = 0.7001	1151.84	1148.13	1144.26	1140.47	1137.04	1129.83	1121.95	1114.7
x1 = 0.8	1168.73	1165.02	1161.24	1157.48	1154.13	1147.03	1139.28	1132.17
x1 = 0.899	1182.8	1179.15	1175.38	1171.67	1168.35	1161.36	1153.64	1146.64
x1 = 0.9498	1189.44	1185.85	1182.12	1178.45	1175.16	1168.19	1160.54	1153.58
x1 = 1	1195.71	1192.07	1188.37	1184.72	1181.43	1174.49	1166.89	1159.97

— the NIST ThermoML archive (doi:10.1021/je700266n)
